Species on record: Rattus norvegicus
Assay: DrugMatrix - Regimen: Daily Repeat
Type: toxicity, organism-based, Sprague-Dawley
Design: regimen Daily Repeat, gender Male, age 6-8 weeks
Settings: in vivo, po, route oral GAVAGE, vehicle 100 % WATER; for ABSOLUTE BASOPHIL / ABSOLUTE EOSINOPHIL / ABSOLUTE LYMPHOCYTE / ABSOLUTE MONOCYTE / ABSOLUTE SEGMENTED NEUTROPHIL / BASOPHIL / EOSINOPHIL / ERYTHROCYTE COUNT / HEMATOCRIT / HEMOGLOBIN / LEUKOCYTE COUNT / LYMPHOCYTE / MEAN CORPUSCULAR HEMOGLOBIN / MEAN CORPUSCULAR HEMOGLOBIN CONCENTRATION / MEAN CORPUSCULAR VOLUME / MONOCYTE / NEUTROPHIL / NUCLEATED RED BLOOD CELLS / PLATELET COUNT: tissue Blood; for ALANINE AMINOTRANSFERASE / ALBUMIN / ALKALINE PHOSPHATASE / ASPARTATE AMINOTRANSFERASE / BLOOD UREA NITROGEN / CARBON DIOXIDE / CHLORIDE / CHOLESTEROL / CREATINE PHOSPHOKINASE / CREATININE / GLUCOSE / LACTATE DEHYDROGENASE / LIPASE / PHOSPHORUS / POTASSIUM / SODIUM / TOTAL BILIRUBIN / TOTAL PROTEIN / URIC ACID: tissue Plasma
[1] = 30 mg/kg, 72 h, dose level Low, time 3 day
[2] = 30 mg/kg, 120 h, dose level Low, time 5 day
[3] = 1000 mg/kg, 72 h, dose level High, time 3 day
[4] = 1000 mg/kg, 120 h, dose level High, time 5 day

SMILES: CCCCc1nc(Cl)c(CO)n1Cc1ccc(-c2ccccc2-c2nn[nH]n2)cc1 [LOSARTAN]
- ABSOLUTE BASOPHIL [1]: 0 CELLS/uL
- ABSOLUTE EOSINOPHIL [1]: 0 CELLS/uL
- ABSOLUTE LYMPHOCYTE [1]: 14016.67 CELLS/uL
- ABSOLUTE MONOCYTE [1]: 389.33 CELLS/uL
- ABSOLUTE SEGMENTED NEUTROPHIL [1]: 894 CELLS/uL
- BASOPHIL [1]: 0%
- EOSINOPHIL [1]: 0%
- ERYTHROCYTE COUNT [1]: 5.45 x10E6/uL
- HEMATOCRIT [1]: 35.03%
- HEMOGLOBIN [1]: 13.17 G/DL
- LEUKOCYTE COUNT [1]: 15.3 x10E3/uL
- LYMPHOCYTE [1]: 91.33%
- MEAN CORPUSCULAR HEMOGLOBIN [1]: 24.17 pg
- MEAN CORPUSCULAR HEMOGLOBIN CONCENTRATION [1]: 37.6 G/DL
- MEAN CORPUSCULAR VOLUME [1]: 64.2 fL
- MONOCYTE [1]: 2.67%
- NEUTROPHIL [1]: 6%
- NUCLEATED RED BLOOD CELLS [1]: 0 /100WBC
- PLATELET COUNT [1]: 1281.67 x10E3/uL
- ALANINE AMINOTRANSFERASE [1]: 42 u/L
- ALBUMIN [1]: 4.4 G/DL
- ALKALINE PHOSPHATASE [1]: 318.67 u/L
- ASPARTATE AMINOTRANSFERASE [1]: 77.33 u/L
- BLOOD UREA NITROGEN [1]: 20 mg/dL
- CARBON DIOXIDE [1]: 25 mmol/L
- CHLORIDE [1]: 103 MEQ/L
- CHOLESTEROL [1]: 78 mg/dL
- CREATINE PHOSPHOKINASE [1]: 190.67 u/L
- CREATININE [1]: 0.23 mg/dL
- GLUCOSE [1]: 178 mg/dL
- LACTATE DEHYDROGENASE [1]: 89.33 u/L
- LIPASE [1]: 9.33 u/L
- PHOSPHORUS [1]: 13.6 mg/dL
- POTASSIUM [1]: 7.08 MEQ/L
- SODIUM [1]: 145.07 MEQ/L
- TOTAL BILIRUBIN [1]: 0.17 mg/dL
- TOTAL PROTEIN [1]: 6.1 G/DL
- URIC ACID [1]: 2.83 mg/dL
- ABSOLUTE BASOPHIL [2]: 0 CELLS/uL
- ABSOLUTE EOSINOPHIL [2]: 152.67 CELLS/uL
- ABSOLUTE LYMPHOCYTE [2]: 13450.67 CELLS/uL
- ABSOLUTE MONOCYTE [2]: 299.67 CELLS/uL
- ABSOLUTE SEGMENTED NEUTROPHIL [2]: 963.67 CELLS/uL
- BASOPHIL [2]: 0%
- EOSINOPHIL [2]: 1.33%
- ERYTHROCYTE COUNT [2]: 5.55 x10E6/uL
- HEMATOCRIT [2]: 35.3%
- HEMOGLOBIN [2]: 13.53 G/DL
- LEUKOCYTE COUNT [2]: 14.87 x10E3/uL
- LYMPHOCYTE [2]: 90%
- MEAN CORPUSCULAR HEMOGLOBIN [2]: 24.37 pg
- MEAN CORPUSCULAR HEMOGLOBIN CONCENTRATION [2]: 38.33 G/DL
- MEAN CORPUSCULAR VOLUME [2]: 63.6 fL
- MONOCYTE [2]: 2%
- NEUTROPHIL [2]: 6.67%
- NUCLEATED RED BLOOD CELLS [2]: 0.33 /100WBC
- PLATELET COUNT [2]: 1227.33 x10E3/uL
- ALANINE AMINOTRANSFERASE [2]: 55 u/L
- ALBUMIN [2]: 4.43 G/DL
- ALKALINE PHOSPHATASE [2]: 365.33 u/L
- ASPARTATE AMINOTRANSFERASE [2]: 83.67 u/L
- BLOOD UREA NITROGEN [2]: 26 mg/dL
- CARBON DIOXIDE [2]: 23.67 mmol/L
- CHLORIDE [2]: 109 MEQ/L
- CHOLESTEROL [2]: 82 mg/dL
- CREATINE PHOSPHOKINASE [2]: 302.33 u/L
- CREATININE [2]: 0.19 mg/dL
- GLUCOSE [2]: 156.67 mg/dL
- LACTATE DEHYDROGENASE [2]: 189 u/L
- LIPASE [2]: 9.5 u/L
- PHOSPHORUS [2]: 12.1 mg/dL
- POTASSIUM [2]: 6.02 MEQ/L
- SODIUM [2]: 144.45 MEQ/L
- TOTAL BILIRUBIN [2]: 0.0667 mg/dL
- TOTAL PROTEIN [2]: 6.2 G/DL
- URIC ACID [2]: 1.5 mg/dL
- ABSOLUTE BASOPHIL [3]: 0 CELLS/uL
- ABSOLUTE EOSINOPHIL [3]: 0 CELLS/uL
- ABSOLUTE LYMPHOCYTE [3]: 16308 CELLS/uL
- ABSOLUTE MONOCYTE [3]: 476 CELLS/uL
- ABSOLUTE SEGMENTED NEUTROPHIL [3]: 949.33 CELLS/uL
- BASOPHIL [3]: 0%
- EOSINOPHIL [3]: 0%
- ERYTHROCYTE COUNT [3]: 5.24 x10E6/uL
- HEMATOCRIT [3]: 33.6%
- HEMOGLOBIN [3]: 12.73 G/DL
- LEUKOCYTE COUNT [3]: 17.73 x10E3/uL
- LYMPHOCYTE [3]: 92.33%
- MEAN CORPUSCULAR HEMOGLOBIN [3]: 24.3 pg
- MEAN CORPUSCULAR HEMOGLOBIN CONCENTRATION [3]: 37.9 G/DL
- MEAN CORPUSCULAR VOLUME [3]: 64.13 fL
- MONOCYTE [3]: 2.67%
- NEUTROPHIL [3]: 5%
- NUCLEATED RED BLOOD CELLS [3]: 0 /100WBC
- PLATELET COUNT [3]: 1384.67 x10E3/uL
- ALANINE AMINOTRANSFERASE [3]: 41.67 u/L
- ALBUMIN [3]: 4.4 G/DL
- ALKALINE PHOSPHATASE [3]: 365.67 u/L
- ASPARTATE AMINOTRANSFERASE [3]: 77.33 u/L
- BLOOD UREA NITROGEN [3]: 39.33 mg/dL
- CARBON DIOXIDE [3]: 21.67 mmol/L
- CHLORIDE [3]: 106.33 MEQ/L
- CHOLESTEROL [3]: 96 mg/dL
- CREATINE PHOSPHOKINASE [3]: 290.67 u/L
- CREATININE [3]: 0.26 mg/dL
- GLUCOSE [3]: 165.33 mg/dL
- LACTATE DEHYDROGENASE [3]: 296 u/L
- LIPASE [3]: 10 u/L
- PHOSPHORUS [3]: 12.6 mg/dL
- POTASSIUM [3]: 6.89 MEQ/L
- SODIUM [3]: 144.3 MEQ/L
- TOTAL BILIRUBIN [3]: 0.2 mg/dL
- TOTAL PROTEIN [3]: 5.93 G/DL
- URIC ACID [3]: 1.73 mg/dL
- ABSOLUTE BASOPHIL [4]: 0 CELLS/uL
- ABSOLUTE EOSINOPHIL [4]: 186 CELLS/uL
- ABSOLUTE LYMPHOCYTE [4]: 17950.67 CELLS/uL
- ABSOLUTE MONOCYTE [4]: 194 CELLS/uL
- ABSOLUTE SEGMENTED NEUTROPHIL [4]: 1069.33 CELLS/uL
- BASOPHIL [4]: 0%
- EOSINOPHIL [4]: 1%
- ERYTHROCYTE COUNT [4]: 5.34 x10E6/uL
- HEMATOCRIT [4]: 32.67%
- HEMOGLOBIN [4]: 12.67 G/DL
- LEUKOCYTE COUNT [4]: 19.4 x10E3/uL
- LYMPHOCYTE [4]: 92.67%
- MEAN CORPUSCULAR HEMOGLOBIN [4]: 23.73 pg
- MEAN CORPUSCULAR HEMOGLOBIN CONCENTRATION [4]: 38.77 G/DL
- MEAN CORPUSCULAR VOLUME [4]: 61.27 fL
- MONOCYTE [4]: 1%
- NEUTROPHIL [4]: 5.33%
- NUCLEATED RED BLOOD CELLS [4]: 0 /100WBC
- PLATELET COUNT [4]: 1450.33 x10E3/uL
- ALANINE AMINOTRANSFERASE [4]: 48.67 u/L
- ALBUMIN [4]: 4.4 G/DL
- ALKALINE PHOSPHATASE [4]: 418.33 u/L
- ASPARTATE AMINOTRANSFERASE [4]: 72 u/L
- BLOOD UREA NITROGEN [4]: 59.67 mg/dL
- CARBON DIOXIDE [4]: 24.33 mmol/L
- CHLORIDE [4]: 110.67 MEQ/L
- CHOLESTEROL [4]: 80.67 mg/dL
- CREATINE PHOSPHOKINASE [4]: 480.33 u/L
- CREATININE [4]: 0.37 mg/dL
- GLUCOSE [4]: 175.33 mg/dL
- LACTATE DEHYDROGENASE [4]: 59.33 u/L
- LIPASE [4]: 9 u/L
- PHOSPHORUS [4]: 11.37 mg/dL
- POTASSIUM [4]: 7.02 MEQ/L
- SODIUM [4]: 146.03 MEQ/L
- TOTAL BILIRUBIN [4]: 0.13 mg/dL
- TOTAL PROTEIN [4]: 5.9 G/DL
- URIC ACID [4]: 1.83 mg/dL

— ChEMBL document CHEMBL3885881, “DrugMatrix”
